Values after ≈ are worked out from the molar mass of the structure shown. Read-outs that look alike come from different tables or passages of the source.
Key:
[1] = Determination of thermodynamic solubility; type: physicochemical; details: thermodynamic from solid, double testing
Method: Weigh about 1 mg of the test compound into 1.5 mL centrifuge tube and add 0.5 mL various solvents, sonicating for 5 minutes (if the compound is completely dissolved, then added again test compound until a little solid remains). Take the supernatant after centrifugation, diluting to a suitable concentration using and measuring absorbance values by UV spectrophotometer. Weigh 10 mg compound accurately of the test compound into 1.5 mL centrifuge tube and add 1.2 mL methanol solution to prepare 8.3 mg·mL^−1 mother solution. Take the above described mother liquor to prepare the solution in concentrations of 8.3, 4.2, 2.1, 1.0, 0.52, 0.26 mg·mL^−1 then measure absorbance value. With concentration c (mg·mL^−1) as the abscissa, absorbance A as the ordinate, mapping and fitting line to get the standard curve (The correlation coefficient should be greater than 0.998). Calculate solubility according to the standard curve of the linear equation.

[2] = system: lung MDSCs and macrophages; experiment: Flow cytometry of MDSCs and macrophages in lung tissue of BLM mice; type: in vivo, C57BL/6 mice; details: 30 mg·kg^−1 i.p.
Method: Male C57BL/6 mice (8‐10 weeks old) were purchased from HFK Bioscience Co. Ltd. All animal experiments were permitted by the Institutional Animal Care and Treatment Committee of Sichuan University in China (New Permit Number: 20190524003). Lung fibrosis was induced using BLM treatment (2 mg·kg^−1). All C57BL/6 mice were divided into five groups (n = 10): a BLM + Nintedanib group (Nintedanib, 30 mg·kg^−1), a BLM + YTH‐60 group (YTH‐60, 15 mg·kg^−1 and 30 mg·kg^−1), a control group (Sham), and a bleomycin group (Vehicle). At the beginning, the mice were anaesthetized using 10% chloral hydrate, dissolved BLM with saline and administered intratracheally. To evaluate the preventive effect, the next day after BLM challenge, YTH‐60 and Nintedanib were administered intraperitoneally daily for 13 days (fibroproliferation) to the mice. All mice were sacrificed 24 hours after the last drug injection, the lungs and other organs were taken for the subsequent analysis. To test the therapeutic effect, after the 7th day of BLM treatment, mice were injected intraperitoneally with YTH‐60, Nintedanib and vehicle daily for 7 consecutive days (fibroproliferation).
We analysed the percentage of MDSCs and macrophages by Flow cytometry (FCM). ^22 Use scissors to cut approximately 30 mg of mouse lung tissues into small pieces and use 5 mL of collagenase‐IV with a concentration of 1 mg·mL^−1, digested at 37°C for at least 1 hour. Centrifuge at 400 g for 5 minutes and discard the supernatant. Then, add another 5 mL PBS to resuspend, after precipitation, taken the supernatant and mixed with the corresponding fluorochromium binding antibody, incubate for 30 minutes in the dark at 4°C (MDSCs with PE^−CD11b^−, FITC^−Gr1^− conjugated dual labelling and macrophages with PE^−F4/80^−, FITC^−CD11b^− conjugated dual labelling). The data were acquired with a FACS Canton II NovoCyte (ACEA).

[3] = design: method as in PMID 25474320; details: 50 mg·kg^−1 oral administration; cited from earlier work

COC(=O)c1ccc2c(c1)NC(=O)/C2=C(\Nc1ccc(N(C)C(=O)CN2CCN(C)CC2)cc1)c1ccccc1 [Nintedanib, reference compound]
solubility at 5 min ([1]; organic solvent or mixture, Acetone, read-out: Solubility, Acetone): 9830 ± 420 µg/mL (≈ 18.2 mM)
solubility at 5 min ([1]; organic solvent or mixture, Acetonitrile, read-out: Solubility, Acetonitrile): 3520 ± 64 µg/mL (≈ 6.53 mM)
solubility at 5 min ([1]; organic solvent or mixture, Ethyl acetate, read-out: Solubility, Ethyl acetate): 9750 ± 350 µg/mL (≈ 18.1 mM)
solubility at 5 min ([1]; organic solvent or mixture, Ethyl alcohol, read-out: Solubility, Ethyl alcohol): 12500 ± 2200 µg/mL (≈ 23.1 mM)
solubility at 5 min ([1]; saline or isotonic, Normal saline, read-out: Solubility, Normal saline): 1930 ± 180 µg/mL (≈ 3.58 mM)
solubility at 5 min ([1]; Water, read-out: Solubility, Water): 280 ± 15 µg/mL (≈ 0.519 mM)
percentage of CD11b^+F4/80^+ cells (macrophages) in lung ([2]; day 14, BLM group 19.9%, sham 9.9%): 13.89%
percentage of CD11b^+Gr1^+ cells (MDSCs) in lung ([2]; day 14, BLM group 20.5%, sham 5.14%): 10.46%
mean bioavailability [3]: 11.9%
